In PubChem BioAssay (NCI):
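Briefly, cells in 96-well plates were exposed to five compound concentrations for 48 h, and endpoints were estimated by linear interpolation. Here, GI50 denotes the concentration required for 50% inhibition of growth. Definition used: TGI = concentration required for complete inhibition of growth.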

Legend:
Experiment in all cases: DTP human tumour cell line panel, 48 h
SK-MEL-5 melanoma = tested on: SK-MEL-5 melanoma
MOLT-4 leukemia = tested on: MOLT-4 leukemia
SF-268 CNS = tested on: SF-268 CNS
ACHN renal = tested on: ACHN renal
UO-31 renal = tested on: UO-31 renal
NCI/ADR-RES ovarian = tested on: NCI/ADR-RES ovarian
DU-145 prostate = tested on: DU-145 prostate
OVCAR-8 ovarian = tested on: OVCAR-8 ovarian
OVCAR-3 ovarian = tested on: OVCAR-3 ovarian
MDA-MB-231 breast = tested on: MDA-MB-231 breast

O=C(Cl)c1cc([N+](=O)[O-])cc([N+](=O)[O-])c1
TGI (SK-MEL-5 melanoma): > 100 µM | TGI (MOLT-4 leukemia): > 100 µM | TGI (SF-268 CNS): > 100 µM | TGI (ACHN renal): > 100 µM | TGI (UO-31 renal): > 100 µM

COC[C@H](Cc1ccccc1)N=Cc1ccccc1
TGI (SK-MEL-5 melanoma): > 100 µM | TGI (MOLT-4 leukemia): > 100 µM | TGI (SF-268 CNS): > 100 µM | TGI (ACHN renal): > 100 µM | TGI (NCI/ADR-RES ovarian): > 100 µM | TGI (DU-145 prostate): > 100 µM | TGI (OVCAR-8 ovarian): > 100 µM | TGI (UO-31 renal): > 100 µM

CC(C)CCC[C@@H](C)[C@H]1CC[C@H]2[C@@H]3CC=C4CC(OCCCCN(O)CCCSC5OC(CO)C(O)C(O)C5O)CC[C@]4(C)[C@H]3CC[C@]12C (some centres not stated)
TGI (SK-MEL-5 melanoma): > 100 µM | TGI (MOLT-4 leukemia): > 100 µM | TGI (SF-268 CNS): > 100 µM | TGI (ACHN renal): > 100 µM | TGI (OVCAR-8 ovarian): > 100 µM | TGI (UO-31 renal): > 100 µM

CCC1OC(=O)C(C)C(OC2CC(C)(O)C(O)C(C)O2)C(C)C(O)C(C)(O)CC(C)C(=O)C(C)C(O)C1C (configuration not stated)
TGI (OVCAR-3 ovarian): > 300 µM | TGI (SK-MEL-5 melanoma): > 300 µM | TGI (MOLT-4 leukemia): > 300 µM | TGI (SF-268 CNS): > 300 µM | TGI (NCI/ADR-RES ovarian): > 300 µM | TGI (OVCAR-8 ovarian): > 300 µM | TGI (UO-31 renal): > 300 µM

CCCCCCCCCCCCCCCCCc1nc(C#N)c(N)o1
TGI (MDA-MB-231 breast): 96.5 µM | TGI (SK-MEL-5 melanoma): > 100 µM | TGI (MOLT-4 leukemia): > 100 µM | TGI (SF-268 CNS): > 100 µM | TGI (ACHN renal): > 100 µM | TGI (DU-145 prostate): > 100 µM | TGI (OVCAR-8 ovarian): 51.8 µM

CC(C)(C)C(=O)Cc1cc2c(cc1C(=O)O)S(=O)(=O)NC(C(C)(C)C)=C2
TGI (OVCAR-3 ovarian): > 100 µM | TGI (MOLT-4 leukemia): > 100 µM | TGI (SF-268 CNS): > 100 µM | TGI (ACHN renal): > 100 µM | TGI (OVCAR-8 ovarian): > 100 µM | TGI (UO-31 renal): > 100 µM

COc1ccc(C2Oc3cc(OC)c(O)cc3[C@@H]2C)cc1 (some centres not stated)
TGI (OVCAR-3 ovarian): > 100 µM | TGI (SK-MEL-5 melanoma): > 100 µM | TGI (MOLT-4 leukemia): 42.8 µM | TGI (SF-268 CNS): > 100 µM | TGI (ACHN renal): 33.2 µM | TGI (OVCAR-8 ovarian): 56.6 µM | TGI (UO-31 renal): 79.3 µM

Nc1nc(NC(=O)C2=NS(=O)(=O)c3cc(S(N)(=O)=O)c(Cl)cc3N2)n[nH]1
TGI (OVCAR-3 ovarian): > 100 µM | TGI (SK-MEL-5 melanoma): > 100 µM | TGI (MOLT-4 leukemia): > 100 µM | TGI (SF-268 CNS): > 100 µM | TGI (ACHN renal): > 100 µM | TGI (UO-31 renal): > 100 µM

O=c1n(CCO)nc2n1CCCN2
TGI (MDA-MB-231 breast): > 100 µM | TGI (OVCAR-3 ovarian): > 100 µM | TGI (SK-MEL-5 melanoma): > 100 µM | TGI (MOLT-4 leukemia): > 100 µM | TGI (SF-268 CNS): > 100 µM | TGI (ACHN renal): > 100 µM | TGI (DU-145 prostate): > 100 µM | TGI (OVCAR-8 ovarian): > 100 µM | TGI (UO-31 renal): > 100 µM

O=c1[nH]/c(=C/c2ccc(OCc3ccccc3)cn2)c(=O)[nH]/c1=C/c1cccnc1
TGI (SF-268 CNS): > 35 µM | TGI (ACHN renal): > 100 µM | TGI (NCI/ADR-RES ovarian): 1.33 µM | TGI (DU-145 prostate): 2.08 µM | TGI (OVCAR-8 ovarian): > 100 µM

N#C/C(=C/NC(=S)Nc1ccc(S(N)(=O)=O)cc1)C(N)=O
TGI (OVCAR-3 ovarian): > 100 µM | TGI (SK-MEL-5 melanoma): > 100 µM | TGI (MOLT-4 leukemia): > 100 µM | TGI (SF-268 CNS): > 100 µM | TGI (ACHN renal): > 100 µM | TGI (DU-145 prostate): > 100 µM | TGI (OVCAR-8 ovarian): > 100 µM

COc1cc(/C=C/C(=O)C(C)(C)C)cc(OC)c1OC
TGI (OVCAR-3 ovarian): > 100 µM | TGI (SK-MEL-5 melanoma): > 100 µM | TGI (MOLT-4 leukemia): > 100 µM | TGI (SF-268 CNS): > 100 µM | TGI (ACHN renal): > 100 µM | TGI (OVCAR-8 ovarian): > 100 µM | TGI (UO-31 renal): > 100 µM

COc1cc2c(oc(=O)c3c4oc([Si](C)(C)C)cc4cc(OC)c23)c2cccc(O)c12
TGI (OVCAR-3 ovarian): > 100 µM | TGI (SK-MEL-5 melanoma): > 100 µM | TGI (MOLT-4 leukemia): > 100 µM | TGI (SF-268 CNS): > 100 µM | TGI (ACHN renal): > 100 µM | TGI (OVCAR-8 ovarian): > 100 µM | TGI (UO-31 renal): > 100 µM

CC(=O)NC(Cc1ccccc1)C(=S)N1CCCC1 (configuration not stated)
TGI (OVCAR-3 ovarian): > 100 µM | TGI (SK-MEL-5 melanoma): > 100 µM | TGI (MOLT-4 leukemia): > 100 µM | TGI (SF-268 CNS): > 100 µM | TGI (ACHN renal): > 100 µM | TGI (OVCAR-8 ovarian): > 100 µM | TGI (UO-31 renal): > 100 µM

O=C(CCc1nnc2s/c(=C\c3ccc(Cl)cc3Cl)c(=O)n12)Nc1cc(Cl)c(Cl)cc1Cl
GI50 (OVCAR-3 ovarian): > 100 µM | TGI (OVCAR-3 ovarian): > 100 µM | GI50 (SK-MEL-5 melanoma): > 100 µM | TGI (SK-MEL-5 melanoma): > 100 µM | GI50 (MOLT-4 leukemia): > 100 µM | TGI (MOLT-4 leukemia): > 100 µM | GI50 (SF-268 CNS): > 100 µM | TGI (SF-268 CNS): > 100 µM | GI50 (ACHN renal): > 100 µM | TGI (ACHN renal): > 100 µM | GI50 (OVCAR-8 ovarian): > 100 µM | TGI (OVCAR-8 ovarian): > 100 µM | GI50 (UO-31 renal): > 100 µM | TGI (UO-31 renal): > 100 µM

COc1cccc2c(NNc3ccc(Cl)cc3)c3ccc([N+](=O)[O-])cc3nc12
TGI (MDA-MB-231 breast): 27.5 µM | TGI (OVCAR-3 ovarian): 36.3 µM | TGI (SK-MEL-5 melanoma): 80.4 µM | TGI (MOLT-4 leukemia): 11.5 µM | TGI (SF-268 CNS): 28.1 µM | TGI (ACHN renal): 22.4 µM | TGI (DU-145 prostate): 53.5 µM | TGI (UO-31 renal): 37.9 µM

Cc1ccc(CCNC(=S)SCC(NC(=O)CCC(N)C(=O)O)C(=O)NCC(=O)O)cc1 (configuration not stated)
TGI (OVCAR-3 ovarian): 5.27 µM | TGI (SK-MEL-5 melanoma): 3.78 µM | TGI (MOLT-4 leukemia): 3.93 µM | TGI (SF-268 CNS): 8.29 µM | TGI (ACHN renal): 4.17 µM | TGI (OVCAR-8 ovarian): 4.65 µM | TGI (UO-31 renal): 2.33 µM

COc1nc(NC2OCC(OC(C)=O)C(OC(C)=O)C2OC(C)=O)c(N=C(C)C(C)=O)c(=O)n1C (configuration not stated)
TGI (SK-MEL-5 melanoma): > 100 µM | TGI (MOLT-4 leukemia): > 100 µM | TGI (SF-268 CNS): > 100 µM | TGI (ACHN renal): > 100 µM | TGI (OVCAR-8 ovarian): > 100 µM | TGI (UO-31 renal): > 100 µM

COC[C@@H](N=Cc1ccc(OC)cc1)C(C)C
TGI (SK-MEL-5 melanoma): > 100 µM | TGI (MOLT-4 leukemia): > 100 µM | TGI (SF-268 CNS): > 100 µM | TGI (ACHN renal): > 100 µM | TGI (NCI/ADR-RES ovarian): > 100 µM | TGI (DU-145 prostate): > 100 µM | TGI (OVCAR-8 ovarian): > 100 µM | TGI (UO-31 renal): > 100 µM

O=C(N/N=C/c1cc(-c2ccccc2Cl)c(-c2ccccc2Cl)o1)c1ccncc1
TGI (OVCAR-3 ovarian): > 100 µM | TGI (SF-268 CNS): > 100 µM | TGI (ACHN renal): > 100 µM

O=c1[nH]c2cccccc-2c1-c1nc2ccccc2[nH]1
TGI (SK-MEL-5 melanoma): 47.6 µM | TGI (SF-268 CNS): 45.3 µM | TGI (ACHN renal): 51.6 µM | TGI (OVCAR-8 ovarian): 96.7 µM | TGI (UO-31 renal): 86.6 µM

COc1ccccc1C1C(Cl)C(=O)N1NC(=O)Cc1ccccc1 (configuration not stated)
TGI (OVCAR-3 ovarian): > 100 µM | TGI (SK-MEL-5 melanoma): > 100 µM | TGI (MOLT-4 leukemia): > 100 µM | TGI (SF-268 CNS): > 100 µM | TGI (ACHN renal): > 100 µM | TGI (OVCAR-8 ovarian): > 100 µM | TGI (UO-31 renal): > 100 µM
